Holding throughout (assay type): binding
Assay [1] deals with T1, GABARAPL1 (Homo sapiens, UniProt Q9H0R8).
T1 construct: GST-GABARAPL1 full-length (pAL); GST (followed by 3C protease cleavage site) (N); made in house
In words: Bio-layer interferometry (BLI) affinity of SCOC LIR peptides for GABARAPL1. As to the method:
(§1) Bio-layer interferometry (BLI) is an optical analytical technique for measuring kinetics of interactions in real-time. The biosensor tip surface immobilized with a ligand is incubated with an analyte in solution, resulting in an increase in optical thickness at the biosensor tip and a wavelength shift, which is a direct measure of the change in thickness. Bio-layer interferometry analyses of ATG8s binding to immobilized biotinylated LIR peptides were performed using an Octet Red 96 (ForteBio). […] Ligands-loaded SA biosensors were then incubated with different concentrations of ATG8. All binding experiments were performed in solid-black 96-well plates containing 200 μl of solution (25 mM Tris pH 7.5, 150 mM NaCl, 0.5 mM TCEP, 0.1% Tween20, 1 mg/ml BSA) in each well at 25 °C with an agitation speed of 1000 rpm. Each measurement was repeated 2 to 3 times. Dissociation constants for LIR-ATG8 interactions were determined from plotting the increase in BLI response as a function of the protein concentration and fitting using non-linear regression of ForteBio 7.1 data analysis and GraphPad Prism 7 softwares.
(§2) The following peptides were synthesized using FMOC solid phase peptide chemistry by the Francis CRICK Institute peptide chemistry science technology platform: […]
A general note: Biolayer interferometry detects binding as a change in optical thickness at a sensor tip.

In assay [2] the target is T2, LC3C (Homo sapiens, UniProt Q9BXW4).
T2 construct: GST (followed by 3C protease cleavage site) (N); made in house
In words: Bio-layer interferometry (BLI) affinity of SCOC LIR peptides for LC3C. As to the method:
as §1, §2

Assay [3] addresses T3, LC3A (Homo sapiens, UniProt Q9H492).
T3 construct: GST (followed by 3C protease cleavage site) (N); made in house
In words: Bio-layer interferometry (BLI) affinity of SCOC LIR peptides for LC3A. The protocol: as §1, §2

The target of assay [4] is T4, LC3B (Homo sapiens, UniProt Q9GZQ8).
T4 construct: GST (followed by 3C protease cleavage site) (N); made in house
In words: Bio-layer interferometry (BLI) affinity of SCOC LIR peptides for LC3B. As to the method: as §1, §2

The target of assay [5] is T5, GABARAP (Homo sapiens, UniProt O95166).
T5 construct: fused with a Gly-Ser linker to full-length GABARAP (GST-GABARAP (pAL)); GST (followed by 3C protease cleavage site) (N); made in house
In words: Bio-layer interferometry (BLI) affinity of SCOC LIR peptides for GABARAP. The protocol:
as §1, §2

Assay [6] has as its target T6, GABARAPL2 (Homo sapiens, UniProt P60520).
T6 construct: GST (followed by 3C protease cleavage site) (N); made in house
Description: Bio-layer interferometry (BLI) affinity of SCOC LIR peptides for GABARAPL2. As to the method:
as §1, §2

SMILES strings stand for the structures. Like-named read-outs stand apart in the source and are kept apart here.

T5 sequence (O95166 whole entry, the tested form may be a part): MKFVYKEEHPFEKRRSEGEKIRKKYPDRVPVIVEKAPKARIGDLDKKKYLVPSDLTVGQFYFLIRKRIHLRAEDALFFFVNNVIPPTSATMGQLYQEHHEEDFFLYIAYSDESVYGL
T6 sequence (P60520 whole entry): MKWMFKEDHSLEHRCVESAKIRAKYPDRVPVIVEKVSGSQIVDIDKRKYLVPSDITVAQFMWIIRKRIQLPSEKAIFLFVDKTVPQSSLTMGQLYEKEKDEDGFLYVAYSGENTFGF
T1 sequence (Q9H0R8 whole entry): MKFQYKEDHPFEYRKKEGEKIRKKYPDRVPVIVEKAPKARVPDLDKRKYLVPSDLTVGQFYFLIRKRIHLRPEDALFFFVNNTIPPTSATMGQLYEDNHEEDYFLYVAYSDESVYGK
T2 sequence (Q9BXW4 whole entry): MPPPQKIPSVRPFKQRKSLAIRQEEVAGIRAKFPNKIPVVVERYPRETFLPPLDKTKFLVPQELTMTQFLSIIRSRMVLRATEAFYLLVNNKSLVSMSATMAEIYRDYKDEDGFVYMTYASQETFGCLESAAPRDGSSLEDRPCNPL

As to `CC[C@H](C)[C@H](NC(=O)[C@H](CC(=O)O)NC(=O)[C@H](CC(=O)O)NC(=O)[C@H](C)NC(=O)[C@H](CC(C)C)NC(=O)[C@H](CO)NC(=O)[C@@H](NC(=O)[C@H](CC(N)=O)NC(=O)[C@@H](NC(=O)[C@H](Cc1ccccc1)NC(=O)[C@@H](NC(=O)[C@H](CO)NC(=O)[C@H](CC(=O)O)NC(=O)[C@H](CCC(=O)O)NC(=O)[C@H](CCC(=O)O)NC(=O)[C@H](CCC(=O)O)NC(=O)[C@H](CCC(=O)O)NC(=O)[C@@H](N)CCCCN)[C@@H](C)OP(=O)(O)O)[C@@H](C)O)[C@@H](C)CC)C(=O)N[C@@H](CC(=O)O)C(=O)N[C@@H](Cc1c[nH]cn1)C(N)=O` [pT13], the Kd came to 2 ± 0.2 µM in assay [1]; 5 ± 0.5 µM in assay [2]; 10.1 ± 1.5 µM in assay [3]; 193 ± 29 µM in assay [4]; 3.1 ± 0.3 µM in assay [5]; 33.8 ± 2.6 µM in assay [6].

Take `CC[C@H](C)[C@H](NC(=O)[C@H](CC(=O)O)NC(=O)[C@H](CC(=O)O)NC(=O)[C@H](C)NC(=O)[C@H](CC(C)C)NC(=O)[C@H](CO)NC(=O)[C@@H](NC(=O)[C@H](CC(N)=O)NC(=O)[C@@H](NC(=O)[C@H](Cc1ccccc1)NC(=O)[C@@H](NC(=O)[C@H](CO)NC(=O)[C@H](CC(=O)O)NC(=O)[C@H](CCC(=O)O)NC(=O)[C@H](CCC(=O)O)NC(=O)[C@H](CCC(=O)O)NC(=O)[C@H](CCC(=O)O)NC(=O)[C@@H](N)CCCCN)[C@@H](C)O)[C@@H](C)O)[C@@H](C)CC)C(=O)N[C@@H](CC(=O)O)C(=O)N[C@@H](Cc1c[nH]cn1)C(N)=O` [SCOC WT]: in assay [5] (BLI, biotinylated LIR peptide on streptavidin biosensor, Tris pH 7.5, 25 °C, average ± standard error of fit, n = 2, Figure 1E, Suppl. Figure 2A, read-out: Kd GABARAP), the Kd was 3.6 µM.

With `CC[C@H](C)[C@H](NC(=O)[C@H](CC(=O)O)NC(=O)[C@H](CC(=O)O)NC(=O)[C@H](C)NC(=O)[C@H](CC(C)C)NC(=O)[C@H](CO)NC(=O)[C@@H](NC(=O)[C@H](CC(N)=O)NC(=O)[C@@H](NC(=O)[C@H](Cc1ccccc1)NC(=O)[C@@H](NC(=O)[C@H](CO)NC(=O)[C@H](CC(=O)O)NC(=O)[C@H](CCC(=O)O)NC(=O)[C@H](CCC(=O)O)NC(=O)[C@H](CCC(=O)O)NC(=O)[C@H](CCC(=O)O)NC(=O)[C@@H](N)CCCCN)[C@@H](C)O)[C@@H](C)OP(=O)(O)O)[C@@H](C)CC)C(=O)N[C@@H](CC(=O)O)C(=O)N[C@@H](Cc1c[nH]cn1)C(N)=O` [pT15], the Kd in assay [1] worked out at 1.2 ± 0.1 µM; in assay [2] it was 3.6 ± 0.4 µM; in assay [3], 3.7 ± 0.5 µM; in assay [4], 37.4 ± 4.5 µM; in assay [5], 3 ± 0.3 µM; in assay [6], 44 ± 4.5 µM.

As for `CC[C@H](C)[C@H](NC(=O)[C@H](CC(N)=O)NC(=O)[C@@H](NC(=O)[C@H](Cc1ccccc1)NC(=O)[C@@H](NC(=O)[C@H](CO)NC(=O)[C@H](CC(=O)O)NC(=O)[C@H](CCC(=O)O)NC(=O)[C@H](CCC(=O)O)NC(=O)[C@H](CCC(=O)O)NC(=O)[C@H](CCC(=O)O)NC(=O)[C@@H](N)CCCCN)[C@@H](C)O)[C@@H](C)O)C(=O)N[C@@H](COP(=O)(O)O)C(=O)N[C@@H](CC(C)C)C(=O)N[C@@H](C)C(N)=O` [SCOC aa 6-20/pS18], the Kd is 3.8 ± 0.3 µM in assay [1] (BLI, wild-type, truncated and phosphorylated SCOC LIR peptides, Tris pH 7.5, 25 °C, average ± standard error of fit, n = 2, Figure 6A, read-out: Kd GAB-L1); 5 ± 0.5 µM in assay [2] (BLI, wild-type, truncated and phosphorylated SCOC LIR peptides, Tris pH 7.5, 25 °C, average ± standard error of fit, n = 2, Figure 6A, read-out: Kd LC3C); 33.3 ± 4.8 µM in assay [3] (BLI, wild-type, truncated and phosphorylated SCOC LIR peptides, Tris pH 7.5, 25 °C, average ± standard error of fit, n = 2, Figure 6A, read-out: Kd LC3A); 7.5 ± 0.8 µM in assay [5] (BLI, wild-type, truncated and phosphorylated SCOC LIR peptides, Tris pH 7.5, 25 °C, average ± standard error of fit, n = 2, Figure 6A, read-out: Kd GAB).

`CC[C@H](C)[C@H](NC(=O)[C@H](CC(=O)O)NC(=O)[C@H](CC(=O)O)NC(=O)[C@H](C)NC(=O)[C@H](CC(C)C)NC(=O)[C@H](CO)NC(=O)[C@@H](NC(=O)[C@H](CC(N)=O)NC(=O)[C@@H](NC(=O)[C@H](Cc1ccccc1)NC(=O)[C@@H](NC(=O)[C@H](COP(=O)(O)O)NC(=O)[C@H](CC(=O)O)NC(=O)[C@H](CCC(=O)O)NC(=O)[C@H](CCC(=O)O)NC(=O)[C@H](CCC(=O)O)NC(=O)[C@H](CCC(=O)O)NC(=O)[C@@H](N)CCCCN)[C@@H](C)O)[C@@H](C)O)[C@@H](C)CC)C(=O)N[C@@H](CC(=O)O)C(=O)N[C@@H](Cc1c[nH]cn1)C(N)=O` [pS12]: the Kd was 0.88 ± 0.08 µM in assay [1] (BLI, wild-type and phosphorylated SCOC LIR peptides, Tris pH 7.5, 25 °C, average ± standard error of fit, n = 2–3, Figure 4B, read-out: Kd GAB-L1); 1.4 ± 0.1 µM in assay [2] (BLI, wild-type and phosphorylated SCOC LIR peptides, Tris pH 7.5, 25 °C, average ± standard error of fit, n = 2–3, Figure 4B, read-out: Kd LC3C); 3 ± 0.4 µM in assay [3] (BLI, wild-type and phosphorylated SCOC LIR peptides, Tris pH 7.5, 25 °C, average ± standard error of fit, n = 2–3, Figure 4B, read-out: Kd LC3A); 41.6 ± 4.6 µM in assay [4] (BLI, wild-type and phosphorylated SCOC LIR peptides, Tris pH 7.5, 25 °C, average ± standard error of fit, n = 2–3, Figure 4B, read-out: Kd LC3B); 1.5 ± 0.1 µM in assay [5] (BLI, wild-type and phosphorylated SCOC LIR peptides, Tris pH 7.5, 25 °C, average ± standard error of fit, n = 2–3, Figure 4B, read-out: Kd GAB); 12.8 ± 1.3 µM in assay [6] (BLI, wild-type and phosphorylated SCOC LIR peptides, Tris pH 7.5, 25 °C, average ± standard error of fit, n = 2–3, Figure 4B, read-out: Kd GAB-L2).

By Kd is commonly meant the constant that tells how readily two partners part at equilibrium.

These data come from paper PMC8202330, “Phosphorylation of the LIR Domain of SCOC Modulates ATG8 Binding Affinity and Specificity” (Journal of Molecular Biology, 2021).
